Consider twelve compounds from patent US20170311599A1, “Target for Anthelmintic Development, and Anthelmintics Utilizing the Same” (The University of Toledo, priority 2016, published 2017).

By EC50 is commonly meant the concentration that produces a half-maximal response.

Test [1] addresses C. elegans 5-HT1-like receptor SER-4 (Caenorhabditis elegans, UniProt G5EGH0). The test can be described thus: in vivo. Format: in vivo. The following applies: for effect on locomotion: SER-4 in cholinergic motor neurons; for activity from observations of nematode locomotion: FIGS. 9A-9B.
In test [2] the target is T1, human 5-HT1A receptor (HTR1A) (Homo sapiens, UniProt P08908).
T1 construct: GFP (C); clone ID: 9020250
T1 sequence (P08908 1-422): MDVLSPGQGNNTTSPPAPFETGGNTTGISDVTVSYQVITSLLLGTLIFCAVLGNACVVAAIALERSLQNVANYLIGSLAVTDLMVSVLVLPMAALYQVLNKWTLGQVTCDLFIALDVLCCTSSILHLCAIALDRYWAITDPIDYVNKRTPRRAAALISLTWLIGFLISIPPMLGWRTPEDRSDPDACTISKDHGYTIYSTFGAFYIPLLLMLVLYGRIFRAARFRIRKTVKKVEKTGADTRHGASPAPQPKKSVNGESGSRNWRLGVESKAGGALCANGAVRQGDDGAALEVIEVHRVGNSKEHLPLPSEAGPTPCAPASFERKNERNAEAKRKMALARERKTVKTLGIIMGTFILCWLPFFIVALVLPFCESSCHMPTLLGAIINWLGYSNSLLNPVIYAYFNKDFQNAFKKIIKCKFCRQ
The test can be described thus: Paralysis assay, 5-HT quint expressing human 5-HT1A receptor in cholinergic motor neurons. It counts as in vivo, Caenorhabditis elegans.

Test [3] deals with T2, Drosophila 5-HT1 orthologue (5HT1A) (Drosophila melanogaster, UniProt P28285).
T2 sequence (P28285 1-834): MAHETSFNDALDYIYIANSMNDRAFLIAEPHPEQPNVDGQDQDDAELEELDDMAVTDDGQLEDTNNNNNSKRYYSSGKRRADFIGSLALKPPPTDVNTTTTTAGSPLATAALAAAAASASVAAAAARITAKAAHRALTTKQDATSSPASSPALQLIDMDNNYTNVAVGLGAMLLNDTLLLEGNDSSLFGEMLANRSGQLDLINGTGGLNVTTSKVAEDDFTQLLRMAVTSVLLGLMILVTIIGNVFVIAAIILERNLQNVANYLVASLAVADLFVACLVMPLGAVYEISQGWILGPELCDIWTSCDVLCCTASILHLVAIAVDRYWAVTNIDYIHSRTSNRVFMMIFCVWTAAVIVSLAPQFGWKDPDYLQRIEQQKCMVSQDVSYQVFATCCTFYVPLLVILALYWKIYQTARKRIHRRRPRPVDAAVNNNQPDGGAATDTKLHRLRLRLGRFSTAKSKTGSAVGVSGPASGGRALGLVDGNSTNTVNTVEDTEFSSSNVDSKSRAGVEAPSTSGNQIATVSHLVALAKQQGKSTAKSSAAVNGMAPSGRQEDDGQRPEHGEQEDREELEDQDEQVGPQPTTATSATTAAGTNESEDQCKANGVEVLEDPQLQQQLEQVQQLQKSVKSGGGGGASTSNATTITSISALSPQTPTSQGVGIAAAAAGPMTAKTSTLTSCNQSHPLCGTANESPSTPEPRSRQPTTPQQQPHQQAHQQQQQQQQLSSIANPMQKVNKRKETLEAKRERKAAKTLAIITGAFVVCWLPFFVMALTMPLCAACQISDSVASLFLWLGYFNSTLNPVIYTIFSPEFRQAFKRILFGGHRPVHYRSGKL
In words: Paralysis assay, 5-HT quint expressing Drosophila 5-HT1 orthologue in cholinergic motor neurons. It counts as in vivo.

Test [4] has as its system flea (Ctenocephalides felis). The test can be described thus: Flea (FF) membrane feed assay (adult). It counts as in vivo. The settings on record: adult fleas fed treated blood, 24 hours, lowest dose causing mortality ≧50%. On the procedure: For the flea (FF) membrane feed assay (adult), compounds were dissolved in DMSO and aliquots were added to citrated bovine blood in membrane covered wells warmed to 37° C. Adult fleas were newly emerged (3-7 days) and unfed. Feeding wells containing approximately 10 adult fleas were placed onto the treated blood wells, and the fleas were allowed to feed on the treated blood for 24 hours. […] Each compound was tested at half-log intervals, and endpoint data was recorded as Minimum Effective Concentration (MEC) in μM. MEC is a subjective visual assessment of organism viability, and is the lowest dose to cause mortality ≧50%.

The test system of test [5] is C. elegans 5-HT1-like receptor SER-4. In words: in vivo. Format: in vivo, Caenorhabditis elegans. The settings on record: paralysis screen, FIGS. 9A-9B.
Test [6] concerns 5-HT quint animals (C. elegans lacking all previously identified 5-HT receptors). In words: Paralysis assay, quintuple 5-HT receptor null C. elegans (5-HT quint). The settings on record: for effect on locomotion: 5-HT quint, 5-HT. It counts as in vivo, Caenorhabditis elegans.
Another test has as its system wild type C. elegans. In words: Paralysis assay on agar plates, wild type C. elegans. Format: in vivo, Caenorhabditis elegans.
Test [7] relates to Haemonchus contortus exsheathed L3 larvae. The test can be described thus: Gastrointestinal nematode (HC) motility assay (exsheathed L3). The following applies: exsheathed L3, 96 hours, >50% decrease in motility. Format: in vivo. As for the experimental part:
For the gastrointestinal nematode (HC) motility assay ([…]3), compounds were dissolved in DMSO and half log dilutions were placed into individual wells. To each well was added approximately 100 Haemonchus contortus […]3 larvae in a buffered nutrient media containing glucose and antibiotic panel resulting in a final concentration curve ranging from 100 μM to 1 nM. […] The data reported is minimum efficacious dose (MED), which is the lowest concentration where there was a >50% decrease in motility compared to the DMSO controls.

The subject of test [8] is heartworm (Dirofilaria immitis) microfilaria. In words: Heartworm (HW) motility assay (microfilaria). Further details: activity against heartworm: dose or concentration left out as unconfirmed. The settings on record: for HW (n = 2 mean), minimum efficacious dose (MED): microfilaria, 72 hour incubation, >50% decrease in motility. It counts as in vivo. As for the experimental part:
For the heartworm (HW) motility assay (microfilaria), compounds were dissolved in DMSO and half log dilutions were placed into individual wells. […] […] The data reported is minimum efficacious dose (MED), which is the lowest concentration where there was a >50% decrease in motility compared to the DMSO controls.

For test [9], the system named is Drosophila histamine-gated Cl- channel (HisCl1).
Test [10] addresses H. contortus (Hco) LGC-55 orthologue (Haemonchus contortus, UniProt D7F471). The test can be described thus: in vivo.
Test [11] relates to TA quad animals (lack all previously identified TA receptors). The test can be described thus: Paralysis assay, quadruple TA receptor null C. elegans (TA quad). Format: in vivo, Caenorhabditis elegans.
The target in test [12] is C. elegans LGC-55 (TA-gated Cl- channel) (Caenorhabditis elegans, UniProt G5EEC1). The test can be described thus: Paralysis assay, TA quad expressing C. elegans LGC-55.
Sequence of C. elegans LGC-55 (TA-gated Cl- channel) (G5EEC1 entry or part of it): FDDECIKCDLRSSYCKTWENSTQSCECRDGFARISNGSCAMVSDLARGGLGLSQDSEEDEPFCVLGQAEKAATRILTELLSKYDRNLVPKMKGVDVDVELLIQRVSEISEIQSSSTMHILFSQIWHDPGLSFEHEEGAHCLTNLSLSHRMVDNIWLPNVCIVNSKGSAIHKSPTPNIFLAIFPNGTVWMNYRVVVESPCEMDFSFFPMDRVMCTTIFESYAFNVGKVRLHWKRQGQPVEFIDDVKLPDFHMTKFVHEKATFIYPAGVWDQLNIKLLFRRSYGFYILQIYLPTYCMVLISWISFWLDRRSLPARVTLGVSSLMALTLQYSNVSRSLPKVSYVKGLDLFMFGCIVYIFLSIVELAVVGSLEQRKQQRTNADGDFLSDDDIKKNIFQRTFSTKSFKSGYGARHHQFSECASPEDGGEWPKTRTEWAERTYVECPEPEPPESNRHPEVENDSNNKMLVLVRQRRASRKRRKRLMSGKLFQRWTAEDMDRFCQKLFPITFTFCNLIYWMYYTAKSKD
The next test has as its system bus-17 (e2800) mutants. In words: whole plant or invertebrate. The following applies: Caenorhabditis elegans, 10 min, read-out: EC50 of 5-HT-dependent paralysis. Format: in vivo.
The target of test [13] is H. contortus (Hco) MOD-1 orthologue (Haemonchus contortus, UniProt M9MR50). The test can be described thus: in vivo.
Sequence of H. contortus (Hco) MOD-1 orthologue (M9MR50 entry or part of it): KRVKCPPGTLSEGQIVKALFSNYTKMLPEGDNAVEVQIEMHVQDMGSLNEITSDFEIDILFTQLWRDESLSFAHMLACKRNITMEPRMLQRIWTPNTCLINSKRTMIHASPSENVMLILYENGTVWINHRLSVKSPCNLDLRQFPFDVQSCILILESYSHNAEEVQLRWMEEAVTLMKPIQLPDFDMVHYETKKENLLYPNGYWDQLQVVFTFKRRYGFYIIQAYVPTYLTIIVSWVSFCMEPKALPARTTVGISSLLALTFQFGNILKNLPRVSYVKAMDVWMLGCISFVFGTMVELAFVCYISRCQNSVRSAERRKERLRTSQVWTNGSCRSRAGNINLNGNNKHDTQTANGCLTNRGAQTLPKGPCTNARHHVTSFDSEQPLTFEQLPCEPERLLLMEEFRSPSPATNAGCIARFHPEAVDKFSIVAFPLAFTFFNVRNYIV
The mark [14] stands for this setting: exogenous 5-HT (1 mM), hypotonic.

Entries after “also recorded” stand apart in the source; their conditions may differ. Where two headings read alike, the source gives them in different places.

Sequence of C. elegans 5-HT1-like receptor SER-4 (Caenorhabditis elegans, UniProt G5EGH0) (G5EGH0 entry or part of it): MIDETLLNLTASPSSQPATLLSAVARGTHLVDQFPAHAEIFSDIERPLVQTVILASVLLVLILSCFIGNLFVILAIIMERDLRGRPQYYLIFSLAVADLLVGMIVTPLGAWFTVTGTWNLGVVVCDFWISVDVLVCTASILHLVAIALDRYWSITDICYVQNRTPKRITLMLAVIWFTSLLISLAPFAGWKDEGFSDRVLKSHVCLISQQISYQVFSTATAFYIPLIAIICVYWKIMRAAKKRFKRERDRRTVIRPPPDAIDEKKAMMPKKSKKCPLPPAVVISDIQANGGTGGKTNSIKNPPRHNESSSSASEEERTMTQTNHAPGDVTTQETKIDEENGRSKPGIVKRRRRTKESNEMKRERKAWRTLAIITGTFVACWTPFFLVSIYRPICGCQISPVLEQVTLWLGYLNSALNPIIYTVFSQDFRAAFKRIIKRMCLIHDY
Sequence of H. contortus (Hco) LGC-55 orthologue (D7F471 entry or part of it): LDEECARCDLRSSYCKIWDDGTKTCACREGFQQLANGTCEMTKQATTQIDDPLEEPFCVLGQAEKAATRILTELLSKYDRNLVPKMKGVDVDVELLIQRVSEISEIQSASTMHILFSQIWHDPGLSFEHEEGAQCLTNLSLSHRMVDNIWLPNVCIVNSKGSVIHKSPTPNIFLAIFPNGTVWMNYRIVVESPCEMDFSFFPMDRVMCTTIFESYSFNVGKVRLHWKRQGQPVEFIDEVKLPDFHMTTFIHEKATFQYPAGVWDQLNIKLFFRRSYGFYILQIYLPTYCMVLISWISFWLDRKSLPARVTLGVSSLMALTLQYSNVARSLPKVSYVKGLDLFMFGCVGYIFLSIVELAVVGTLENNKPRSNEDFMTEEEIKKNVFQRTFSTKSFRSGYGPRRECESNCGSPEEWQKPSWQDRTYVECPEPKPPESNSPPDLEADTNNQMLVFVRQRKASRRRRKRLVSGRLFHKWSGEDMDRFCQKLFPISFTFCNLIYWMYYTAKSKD

For the compound `CCCN(CCC)C1CCc2cccc(O)c2C1` (stereo not shown) [8-OH-DPAT, 8-hydroxy-2-(di-n-propylamino) tetralin], the “effect on locomotion” value in [1] (8-OH-DPAT at 2 mM, hypotonic) was “no effect on locomotion”; in test [3] (8-OH-DPAT at 2 mM, hypotonic), “no effect on locomotion”. The “paralysis” value in [2] (8-OH-DPAT (2 mM), hypotonic) is given as “rapidly paralyzed”.
On to `O=C(/C=C/c1c[nH]c2ccc(O)cc12)c1ccncc1` [CD3-718, trans-3-(5-hydroxy-1H-indol-3-yl)-1-(4-pyridinyl)-2-propen-1-one], for which the “FF (n = 2 mean), Minimum Effective Concentration (MEC)” value (“FF (n = 2 mean)” for short) in test [4] was over 100 µg/mL. Further, the “paralysis” value is “causing paralysis” in test [1] (animals expressing the nematode 5-HT1 receptor (SER-4), 15 minutes exposure); “not in animals that do not express any previously identified 5-HT receptors” in [6] (5-HT quint animals, 15 minutes exposure); “causing paralysis” with wild type C. elegans (15 minutes exposure). In test [5], the “selectivity for C. elegans 5-HT1 versus human 5-HT1” value was “remarkable selectivity; also recorded: remarkably selective”. The “HC (n = 2 mean), minimum efficacious dose (MED)” value (from here on “HC (n = 2 mean)”) in test [7] was over 100 µg/mL. Further, in [8], the “activity against heartworm” value is “inactive”. Further, the “HW (n = 2 mean), minimum efficacious dose (MED)” value (“HW (n = 2 mean)” below) in test [8] is over 100 µg/mL.
Take `CNS(=O)(=O)Cc1ccc2[nH]cc(CCN(C)C)c2c1` [sumatriptan, sumatriptan succinate]: the “effect on locomotion” value was “no effect on locomotion” in test [1] (0.5 mM sumatriptan); “no effect on locomotion” in test [2] (0.5 mM sumatriptan); “no effect on locomotion” in [3] (0.5 mM sumatriptan); “no effect on locomotion” in the test with wild type C. elegans (0.5 mM sumatriptan, hypotonic). In [2] (sumatriptan at higher concentrations (1 mM)), the “paralysis” value was “failed to fully paralyze”.
On to `CCCc1[nH]c2ccc(OC)cc2c1/C=C/C(=O)c1ccncc1` [CD3-980], for which the “activity from observations of nematode locomotion” value (shortened to “activity from observations”) in test [1] is reported as “at least moderate activity with favorable species selectivity”.
In the case of `COc1ccc2[nH]c(C)c(/C=C/C(=O)c3ccncc3)c2c1` [CD3-719], the “activity from observations” value in [1] was “decreased activity”.
On to `Cl.Cl.NCCc1c[nH]cn1` [histamine, histamine dihydrochloride], for which the “paralysis” value in [9] (2 mM histamine, NGM plates) is given as “did not cause paralysis”; in [9] (2 mM histamine, hypotonic assay conditions) it was “caused significance paralysis”; in test [9] (10 mM histamine, NGM plates), “caused significance paralysis”; in the test on wild type C. elegans (2 mM histamine, NGM plates), “did not cause paralysis”.
As for `COc1ccc2[nH]c(CC(C)C)c(/C=C/C(=O)c3ccncc3)c2c1` [CD3-984], the “activity from observations” value in test [1] is listed as “at least moderate activity with favorable species selectivity”.
On to `NCCc1ccc(O)cc1` [TA, tyramine], for which the half-maximal effective concentration (EC50) in [10] and in [12] was about 100 µM each time. In test [11], the “effect on locomotion” value is “no effect on locomotion”.
Turning to `NCCc1c[nH]c2ccc(O)cc12` [5-HT, Serotonin], the “paralysis” value was “rapidly paralyzed” in test [1] (5-HT quint expressing SER-4 in AIB interneurons (Pnpr-9), 5-HT (1 mM), hypotonic); “rapidly paralyzed” in test [1] (5-HT quint expressing SER-4 in cholinergic motor neurons (Punc-17β), 5-HT (1 mM), hypotonic); “rapid paralysis” in test [1] (SER-4 quad (ser-5;mod-1;ser-7 ser-1 quadruple null), 15 mM 5-HT, NGM agar plates); 50% in the test with wild type C. elegans (1 mM 5-HT, 10 min exposure, hypotonic non-NGM agar); “rapid paralysis” in the test with wild type C. elegans (15 mM 5-HT, NGM agar plates). In addition, the “locomotion” value in [2] (setting [14]) and in test [3] (setting [14]) was “dramatically inhibited” in each case. Further, the EC50 in the test on bus-17 (e2800) mutants is about 240 µM; with wild type C. elegans (Caenorhabditis elegans, 10 min, isotonic NGM agar plates, 10 min, read-out: EC50 of 5-HT-dependent paralysis), 11500 µM; with wild type C. elegans (Caenorhabditis elegans, hypotonic (agar alone without NGM, salt-free), read-out: EC50 of 5-HT-dependent paralysis) it was about 400 µM; in the test with wild type C. elegans (hypotonic (agar alone without NGM, salt-free), read-out: EC50 of 5-HT-dependent paralysis), about 500 µM; in the test with wild type C. elegans (isotonic NGM agar plates, 10 min, read-out: EC50 of 5-HT-dependent paralysis) it was about 12000 µM; in test [13], about 200 µM. Moreover, the “effect on locomotion” value in [6] (NGM agar plates) and in test [6] (hypotonic non-NGM agar plates) was “no effect on locomotion” each time.
Regarding `CSCCC(NC(=O)C(Cc1ccc(O)cc1)NC(=O)Cc1c[nH]c2ccccc12)C(=O)NC(C)C(=O)O` [CD3-276, N-[(Indol-3)acetyl]-D-Tyrosyl-Methionyl-D-alanine], in test [4], the “FF (n = 2 mean)” value was over 100 µg/mL. The “HC (n = 2 mean)” value in test [7] was over 100 µg/mL. Further, in test [8], the “activity against heartworm” value is “inactive” and the “HW (n = 2 mean)” value is over 100 µg/mL.
For `O=C(/C=C/c1c[nH]c2ccccc12)c1ccccc1` [CD3-664], the “FF (n = 2 mean)” value in test [4] was over 100 µg/mL. Moreover, in [7], the “HC (n = 2 mean)” value is over 100 µg/mL. Also, in [8], the “activity against heartworm” value is listed as “active against heartworm” and the “HW (n = 2 mean)” value was 100 µg/mL.
Consider `Nc1ccc(CCN2CCN(c3cccc(C(F)(F)F)c3)CC2)cc1` [PAPP, p-amino-phenethyl-m-trifluoromethylphenyl piperazine], for which the 50% effective concentration (EC50) in test [1] is 170 µM; in test [6] (Caenorhabditis elegans, 0.25 h, read-out: EC50 of PAPP-dependent paralysis) it was 680 µM; with wild type C. elegans (Caenorhabditis elegans, 0.25 h, 15 min exposure, hypotonic, read-out: EC50 of PAPP-dependent paralysis), 370 µM.
